Results: EP0870197B2, “USE OF NUCLEAR MAGNETIC RESONANCE TO DESIGN LIGANDS TO TARGET BIOMOLECULES” (priority 1995, dated 1997)
Like-named read-outs stand apart in the source and are kept apart here. Each block holds one compound with its values, some of them ahead of it.

How the values were obtained:
[1] = target: T1, catalytic domain of stromelysin (Homo sapiens, UniProt P08254); test: two-dimensional 15N/1H NMR correlation titration, dissociation constant; assay type: binding
T1 construct: expression construct coding for amino acid residues 81-256 plus an initiating methionine; initiating methionine (N); made in house; host or cells: E. coli BL21(DE3)/pLysS, pET3d
T1 sequence (P08254 98-273): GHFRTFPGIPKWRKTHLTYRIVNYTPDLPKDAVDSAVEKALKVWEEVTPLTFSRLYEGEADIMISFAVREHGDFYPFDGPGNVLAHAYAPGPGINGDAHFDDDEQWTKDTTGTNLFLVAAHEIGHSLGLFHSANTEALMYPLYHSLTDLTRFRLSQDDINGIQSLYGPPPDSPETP
Experimental: Binding or dissociation constants are measured by following the ^15N/^1H chemical shifts of the protein as a function of ligand concentration. A known concentration ([P]o) of the target molecule is mixed with a known concentration ([L]0) of a previously identified ligand and the two-dimensional ^15N/^1H correlation spectrum was acquired. From this spectrum, observed chemical shift values (δobs) are obtained. The process is repeated for varying concentrations of the ligand to the point of saturation of the target molecule, when possible, in which case the limiting chemical shift value for saturation (δsat) is measured.
In those situations where saturation of the target molecule is achieved, the dissociation constant for the binding of a particular ligand to the target molecule is calculated using the formula: KD = (([P]0−x)([L]0−x))/(x) [formula] where [P]0 is the total molar concentration of target molecule; [L]0 is the total molar concentration of ligand; and x is the molar concentration of the bound species. The value of x is determined from the equation: x = (δobs −δfree)/(Δ) [formula] where δfree is the chemical shift of the free species; δobs is the observed chemical shift; and Δ is the difference between the limiting chemical shift value for saturation (δsat) and the chemical shift value of the target molecule free of ligand (δfree).
The dissociation constant is then determined by varying its value until a best fitto the observed data is obtained using standard curve-fitting statistical methods. In the case where δsat is not directly known, both KD and δsat are varied and subjected to the same curve-fitting procedure.
The catalytic domain of stromelysin was prepared in accordance with the procedures of Example 1. The protein solutions used in the screening assay contained the uniformly ^15N-labeled catalytic domain of stromelysin (0.3 mM), acetohydroxamic acid (500 mM), CaCl2 (20 mM), and sodium azide (0.5%) in a H2O/D2O (9/1) TRIS buffered solution (50 mM, pH=7.0).
Two-dimensional ^15N/^1H NMR spectra were generated at 29°C on a Bruker AMX500 NMR spectrometer equipped with a triple resonance probe and Bruker sample changer. The ^15N/^1H HSQC spectra were acquired as 80 x 1024 complex points using sweep widths of 2000 Hz (^15N, t^1) and 8333 Hz (^1H, t2). A delay of 1 second between scans and 8 scans perfree induction decay(fid) were employed in the data collection. All NMR spectra were processed and analyzed on Silicon Graphics computers using in-house-written software.
A first two-dimensional ^15N/^1 H NMR correlation spectrum was acquired for the ^15N-labeled stromelysin target molecule as described above. The stromelysin target was then exposed to a database of test compounds. Stock solutions of the compounds were made at 100 mM and 1 M. In addition, a combination library was prepared that contained 8-10 compounds per sample at a concentration of 100 mM for each compound.
The NMR samples were prepared by adding 4 µl of the DMSO stock solution of the compound mixtures that contained each compound at a concentration of 100 mM to 0.4 ml H2O/D2O (9/1) buffered solution of the uniformly ^15N-labeled protein. The final concentration of each of the compounds in the NMR sample was about 1 mM.
Various biaryl compounds of structure I were tested for binding to stromelysin at differing concentrations. The ^15N/^1H spectra generated at each concentration were evaluated to quantify differences in the spectra as a function of compound concentration. A binding or dissociation constant (KD)was calculated, using standard procedures well known in the art, from those differences. The values for R1-R3 and A1-A3 in Table 1 refer to the corresponding positions in the structure I, above.
All NMR measurements were performed in the presence of 500 mM acetohydroxamic acid, except for the titration of acetohydroxamic acid itself. Dissociation constants were obtained from the dependence of the observed chemical shift changes upon added ligand. […]

Stromelysin = target: T2, Stromelysin (Homo sapiens, UniProt P08254); test: stromelysin inhibition by linked hydroxamate-biaryl compounds; assay type: biochemical; details: for IC50: Table 4, kind of constant not given
T2 construct: expression construct coding for amino acid residues 81-256 plus an initiating methionine; initiating methionine (N); made in house; host or cells: E. coli BL21(DE3)/pLysS, pET3d
T2 sequence (P08254 98-273): as above

[2] = target: T3, DNA-binding domain of the E2 protein (Human papillomavirus 31, UniProt P17383); test: two-dimensional 15N/1H NMR correlation titration, binding constants for two binding sites
T3 construct: made in house; host or cells: bacteria, T7 expression system
T3 sequence (P17383 292-372): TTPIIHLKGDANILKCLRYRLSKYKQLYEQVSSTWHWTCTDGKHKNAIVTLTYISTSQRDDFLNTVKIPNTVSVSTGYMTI
Experimental: Compounds from the database were screened in a similar manner for binding to the DNA-binding domain of the E2 protein. Those compounds had the structure II below, where R1-R4 and A are defined in Table 2. [drawing 5]
NMR experiments were performed at 29°C on a Bruker AMX500 NMR spectrometer equipped with a triple resonance probe and Bruker sample changer. The ^15N-/^1H HSQC spectra were acquired as 80 x 1024 complex points using sweep widths of 2000 Hz (^15N,t1) and 8333 Hz (^1H, t2). A delay of 1 second between scans and 4 scans per free induction decay were employed in the data collection. All NMR spectra were processed and analyzed on Silicon Graphics computers.
By monitoring the chemical shift changes as a function of ligand concentration, binding constants for the two binding sites were also measured. Table 2 […]

FKBP [3] = target: T4, FKBP (Homo sapiens, UniProt P62942); test: two-dimensional 15N/1H NMR correlation titration, dissociation constant; assay type: binding; parameters: made in house; host or cells: recombinant
T4 sequence (P62942 whole entry, the tested form may be a part): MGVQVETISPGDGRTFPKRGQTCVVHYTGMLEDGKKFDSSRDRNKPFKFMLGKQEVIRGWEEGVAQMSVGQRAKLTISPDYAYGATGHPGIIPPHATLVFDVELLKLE
Experimental: The second step in the design process was the identification of a second ligand that bound to the target FKBP at a site different from the binding site of compound 29. This was accomplished by screening compounds for their ability to bind to FKBP in the presence of saturating amounts of the ascomycin fragment analog (compound 29). Details of procedures for this second identification step are as set forth in example 2.
In the second round of screening, binding was assayed both in the presence and in the absence of saturating amount of compound 29 (1 mM).
Various benzanilide compounds were tested for binding to FKBP at multiple ligand concentrations. The ^15N/^1H correlation spectra generated at each concentration were evaluated to quantify differences in the spectra as a function of compound concentration. A binding or dissociation constant (Kd) was calculated, using standard procedures well known in the art, from those differences. The values for R1-R4 in Table 5 refer to the corresponding positions in the structure III, above.

[4] = target: T1, catalytic domain of stromelysin; test: enzymatic assay, cleavage of a fluorogenic substrate; assay type: biochemical; details: read-out: Assay KI
Experimental: In a first study, binding constants were determined, both by the NMR method of the present invention, and by a prior art enzymatic assay. The target molecule was the catalytic domain of stromelysin prepared in accordance with the procedures of Example 1. […] The KD values so obtained were compared to an inhibition constant KI as determined in an enzymatic assay.
The enzymatic assay measured the rate of cleavage of a fluorogenic substrate by following the fluorescence increase upon peptide cleavage which causes a separation between the fluorophore and quencher. Enzymatic activity was measured using a matrix of different concentrations of acetohydroxamic acid and biaryl compounds. The assay is a modification of the method described by H. Weingarten, et al. in Anal. Biochem., 147: 437-440 (1985) employing the fluorogenic substrate properties described by E. Matayoshi, et al. in Science: 247: 954-958 (1990).
Eight acetohydroxamic acid concentrations were used ranging from 0.0 to 1.0 M, and six compound concentrations were used, resulting in a total of 48 points. Individual compound concentration varied due to solubility and potency.
All NMR measurements were performed in the presence of 500 mM acetohydroxamic acid, except for the titration of acetohydroxamic acid itself. Dissociation constants were obtained from the dependence of the observed chemical shift changes upon added ligand. Inhibition constants were then obtained from the inhibition data using standard procedures.

FKBP [5] = target: T4, FKBP; test: binding affinity by fluorescence titrations; parameters: made in house
[6] = amides of the DNA-binding site, read-out: DNA KD
[7] = amides of the β-barrel site, read-out: β-barrel KD
[8] = Table 1, biaryl compounds of structure I, differing concentrations, read-out: KD

SMILES: Oc1cccc(-c2ccccc2)c1 [Compound 1]
Kd [1]: 1100 µM

SMILES: N#Cc1ccc(-c2ccc(OCCCC(=O)NO)cc2)cc1 [Compound 26]
IC50 (Stromelysin): 3.4 µM

SMILES: O=C(O)C=Cc1ccc(-c2ccccc2)cc1 [Compound 18]
Kd [2, 6]: 1200 µM
Kd [2, 7]: 6200 µM

SMILES: Oc1ccc(-c2ccc(Br)cc2)cc1 [Compound 3]
Kd [1, 8]: 1300 µM

SMILES: OCc1ccc(-c2ccccc2)cc1 [Compound 2]
Kd [1, 8]: 3200 µM

SMILES: N#Cc1ccc(-c2ccc(OCCC(=O)NO)cc2)cc1 [Compound 25]
IC50 (Stromelysin): 0.025 µM

SMILES: c1ccc(-c2ccncc2)cc1 [Compound 7]
Kd ([1]; read-out: KD): 200 µM
Kd ([1]; read-out: NMR KD): 170 µM
Ki [4]: 320 µM

SMILES: O=C(c1ccccc1)c1cccc(O)c1 [Compound 13]
Kd [2, 6]: > 50000 µM
Kd [2, 7]: 600 µM

SMILES: O=C(O)c1ccc(-c2cc(Cl)cc(Cl)c2)cc1 [Compound 16]
Kd [2, 6]: 100 µM
Kd [2, 7]: > 50000 µM

SMILES: O=C(CCOc1ccc(-c2ccccc2)cc1)NO [Compound 21]
IC50 (Stromelysin): 0.31 µM

SMILES: COc1cc(C(=O)C(=O)N2CCCC[C@H]2C(=O)OCCCOc2ccc(C(=O)Nc3ccc(O)cc3)cc2)cc(OC)c1OC
Kd (FKBP [5]): 0.019 µM
increase in potency over the ascomycin-fragment analog (compound 29) alone (FKBP [5]): 100 fold

SMILES: O=C(CCCCCOc1ccc(-c2ccccc2)cc1)NO [Compound 24]
inhibition at 100 µM (Stromelysin; @ 100 µM): 43%

More lines, now with the values ahead:

Kd (FKBP [3]): 600 µM
SMILES: O=C(Nc1ccc(O)cc1)c1ccccc1 [Compound 34]

IC50 (Stromelysin): 3.5 µM
SMILES: N#Cc1ccc(-c2ccc(OCCCCC(=O)NO)cc2)cc1 [Compound 27]

Kd (FKBP [3]): 100 µM
SMILES: O=C(Nc1ccc(O)cc1)c1ccc(O)cc1 [Compound 33]

IC50 (Stromelysin): 1.7 µM
SMILES: N#Cc1ccc(-c2ccc(OCCCCCC(=O)NO)cc2)cc1 [Compound 28]

Kd (FKBP [3]): 500 µM
SMILES: O=C(Nc1ccccc1)c1ccc(O)cc1 [Compound 32]

Kd (FKBP [3]): 500 µM
SMILES: Cc1cc(C(=O)Nc2ccc(O)cc2)ccc1O [Compound 35]

Kd (FKBP [5]): 2 µM
occupancy of the binding site (FKBP [3]; ligand concentrations of 1 mM): > 98%
SMILES: COC(=O)[C@@H]1CCCCN1C(=O)C(=O)c1cc(OC)c(OC)c(OC)c1 [Compound 29]
